How the values were obtained:
Tetranychus urticae = assay: Tetranychus-test, OP-resistant (TETRUR, spray application); format: in vivo; conditions: application rate of 100 g/ha, spray on French bean, two spotted spidermite, all stages
Procedure: Tetranychus-test, OP-resistant (TETRUR, spray application)
(§1) To produce a suitable preparation of active compound, 1 part by weight of active compound is mixed with the stated amount of solvent and emulsifier, and the concentrate is diluted with emulsifier-containing water to the desired concentration.
French bean (Phaseolus vulgaris) which are heavily infested with all stages of the two spotted spidermite (Tetranychus urticae), are sprayed with a preparation of the active ingredient at the desired concentration.
After the specified period of time, mortality in % is determined. 100 % means that all spider mites have been killed; 0 % means that none of the […] have been killed.

Meloidogyne incognita = assay: Meloidogyne-test, OP resistant (MELGIN spray application); format: in vivo; conditions: application rate of 20 ppm, sand with egg/larval suspension and lettuce seeds, read-out: activity (nematicidal efficacy in % with reference to gall formation)
Procedure: Meloidogyne-test, OP resistant (MELGIN spray application)
as §1
Containers are filled with sand, active compound solution, Meloidogyne incognita egg/larval suspension and lettuce seeds. The lettuce seeds germinate and the plantlets develop. The galls develop on the roots.
After the desired time, the nematicidal efficacy is determined in % with reference to gall formation. 100 % means that no galls were found; 0 % means that the number of galls on the treated plants corresponds to that of the untreated control.

Boophilus microplus = assay: Boophilus microplus-test (injektion); format: in vivo; conditions: application rate of 20 µg/animal; injected in the abdomen
Procedure: Boophilus microplus-test (injektion)
as §1
The solution of the active compound is injected in the abdomen (Boophilus microplus); the animals are transferred into a cup and stayed in a rooming with an air condition.
After the specified period of time, the efficiany mortality in % is determined. 100 % means that no tick has lay fertile eggs.

Myzus persicae = assay: Myzus persicae-test (MYZUPE, spray application); format: in vivo; conditions: spray on Chinese cabbage leaf-disks, green peach aphid, all instars; for mortality at 500 g/ha: application rate of 500 g/ha; for mortality at 100 g/ha: application rate of 100 g/ha
Procedure: Myzus persicae-test (MYZUPE, spray application) [table] [table] To produce a suitable preparation of active compound, 1 part by weight of active compound is mixed with the stated amount of solvent and emulsifier, and the concentrate is diluted with emulsifier-containing water to the desired concentration. Chinese cabbage (Brassica pekinensis) leaf-disks infected with all instars of the green peach aphid (Myzus persicae), are sprayed with a preparation of the active ingredient at the desired concentration. After the specified period of time, mortality in % is determined. 100 % means that all aphids have been killed; 0 % means that none of the […] have been killed.

[1] = logP (HCOOH) determination; format: physicochemical

C[C@H](NC(=S)NCCO)c1ccc(Cl)cc1 [Compound No. 158]
mortality at 100 g/ha (Tetranychus urticae): ≥ 80% | inhibition at 20 ppm (Meloidogyne incognita): ≥ 80% | efficiency (100 % means that no tick has lay fertile eggs) (Boophilus microplus): ≥ 80% | mortality at 500 g/ha (Myzus persicae): ≥ 80%

C[C@H](NC(=S)NCCO)c1ccc(F)cc1 [EXAMPLE 1]
chromatographic logP [1]: 1.52

C[C@H](NC(=S)NCCO)c1ccccc1F [EXAMPLE 2]
chromatographic logP [1]: 1.5

CC(NC(=S)NCCO)c1cccc(F)c1 (centres unmarked) [compound 3]
efficiency (100 % means that no tick has lay fertile eggs) (Boophilus microplus): ≥ 80% | mortality at 100 g/ha (Myzus persicae): ≥ 80%

C[C@H](NC(=S)NCCO)c1ccccc1 [compound 5]
mortality at 500 g/ha (Myzus persicae): ≥ 80%

C[C@H](NC(=S)NCCO)c1ccccc1F [compound 6]
mortality at 100 g/ha (Tetranychus urticae): ≥ 80% | efficiency (100 % means that no tick has lay fertile eggs) (Boophilus microplus): ≥ 80% | mortality at 100 g/ha (Myzus persicae): ≥ 80%

C[C@H](NC(=S)NCCO)c1ccc(F)cc1 [compound 8]
mortality at 500 g/ha (Myzus persicae): ≥ 80%

CC[C@H](NC(=S)NCCO)c1ccccc1 [compound 13]
mortality at 500 g/ha (Myzus persicae): ≥ 80%
